Results reported in ChEMBL document CHEMBL3045976, “Synthesis of biphenyl derivatives as ACE and -amylase inhibitors” (Med Chem Res, 2013).
Active and inactive are the calls of the source. No cut-off for these calls is given here.

Tests used:
[1] = molecular target: Angiotensin-converting enzyme (Homo sapiens) (UniProt P12821); assay: Inhibition of ACE (unknown origin) using Hippuryl-His-Leu as substrate at 1 to 10 ug incubated for 10 min prior to substrate addition measured after 45 min by spectrophotometric analysis relative to control
Angiotensin-converting enzyme (Homo sapiens), sequence (P12821 whole entry): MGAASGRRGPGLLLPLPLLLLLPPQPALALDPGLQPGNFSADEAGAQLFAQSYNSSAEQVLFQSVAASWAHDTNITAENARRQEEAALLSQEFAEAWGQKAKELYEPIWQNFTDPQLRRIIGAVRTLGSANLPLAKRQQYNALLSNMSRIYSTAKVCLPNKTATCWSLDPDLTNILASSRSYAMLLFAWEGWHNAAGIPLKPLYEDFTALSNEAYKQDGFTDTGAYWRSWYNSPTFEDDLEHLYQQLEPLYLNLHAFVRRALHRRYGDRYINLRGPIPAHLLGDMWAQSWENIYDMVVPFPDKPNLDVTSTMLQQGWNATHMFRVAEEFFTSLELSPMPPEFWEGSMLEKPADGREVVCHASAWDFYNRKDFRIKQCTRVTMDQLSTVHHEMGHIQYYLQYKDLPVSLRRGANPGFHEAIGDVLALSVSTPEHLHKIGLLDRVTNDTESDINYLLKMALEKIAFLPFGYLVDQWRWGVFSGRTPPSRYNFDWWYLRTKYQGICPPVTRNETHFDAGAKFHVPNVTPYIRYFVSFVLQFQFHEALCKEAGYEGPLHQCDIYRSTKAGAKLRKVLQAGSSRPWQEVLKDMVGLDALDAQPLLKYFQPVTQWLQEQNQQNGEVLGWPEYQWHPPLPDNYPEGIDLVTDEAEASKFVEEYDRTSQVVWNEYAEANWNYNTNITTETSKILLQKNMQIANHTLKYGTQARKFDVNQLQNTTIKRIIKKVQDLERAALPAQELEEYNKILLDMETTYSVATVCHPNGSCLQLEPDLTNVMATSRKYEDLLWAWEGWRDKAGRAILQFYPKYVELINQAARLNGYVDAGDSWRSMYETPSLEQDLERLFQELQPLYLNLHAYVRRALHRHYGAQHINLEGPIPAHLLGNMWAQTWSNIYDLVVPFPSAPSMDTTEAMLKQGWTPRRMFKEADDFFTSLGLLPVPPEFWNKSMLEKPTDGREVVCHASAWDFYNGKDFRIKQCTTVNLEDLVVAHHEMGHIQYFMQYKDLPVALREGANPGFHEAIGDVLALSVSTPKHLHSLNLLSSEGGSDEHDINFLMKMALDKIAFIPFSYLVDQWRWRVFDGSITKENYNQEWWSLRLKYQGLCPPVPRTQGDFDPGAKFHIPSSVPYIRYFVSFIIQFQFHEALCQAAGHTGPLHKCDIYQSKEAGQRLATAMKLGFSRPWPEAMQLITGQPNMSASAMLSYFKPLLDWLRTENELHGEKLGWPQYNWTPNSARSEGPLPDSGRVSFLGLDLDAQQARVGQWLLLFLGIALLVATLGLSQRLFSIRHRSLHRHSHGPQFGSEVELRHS

[2] = molecular target: Alpha amylase (Homo sapiens) (UniProt P0DUB6); assay: Inhibition of alpha-amylase (unknown origin) using starch as substrate at 100 to 500 ug incubated for 10 min prior to substrate addition measured after 15 min by DNSA method relative to control
Alpha amylase (Homo sapiens), sequence (P0DUB6 whole entry, looked up): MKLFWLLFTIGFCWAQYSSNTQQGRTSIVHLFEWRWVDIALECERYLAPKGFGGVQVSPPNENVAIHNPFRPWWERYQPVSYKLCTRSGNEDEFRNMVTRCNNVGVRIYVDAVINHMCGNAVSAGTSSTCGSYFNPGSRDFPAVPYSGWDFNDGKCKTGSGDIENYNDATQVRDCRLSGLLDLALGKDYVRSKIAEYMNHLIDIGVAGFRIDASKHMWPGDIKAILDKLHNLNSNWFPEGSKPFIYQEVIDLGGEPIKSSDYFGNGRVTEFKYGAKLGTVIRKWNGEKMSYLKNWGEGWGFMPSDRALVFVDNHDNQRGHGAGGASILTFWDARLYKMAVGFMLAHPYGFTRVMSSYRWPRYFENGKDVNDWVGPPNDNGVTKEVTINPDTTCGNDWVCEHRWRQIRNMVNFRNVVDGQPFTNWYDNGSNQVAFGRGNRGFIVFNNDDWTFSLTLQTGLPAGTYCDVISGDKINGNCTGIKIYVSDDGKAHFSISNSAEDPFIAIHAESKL

[3] = molecular target: Angiotensin-converting enzyme (Homo sapiens) (UniProt P12821); assay: Inhibition of ACE (unknown origin) using Hippuryl-His-Leu as substrate at 10 ug incubated for 10 min prior to substrate addition measured after 45 min by spectrophotometric analysis relative to control

Compound | inhibition [1] | inhibition [2] | inhibition [3] [%]
Cc1nnc(-c2ccccc2-c2ccc(CN3CCN(C)CC3)cc2)o1 | inactive | inactive | 
c1ccc(-c2nnn[nH]2)c(-c2ccc(CN3CCOCC3)cc2)c1 | inactive | inactive | 
c1ccc(-c2nnn[nH]2)c(-c2ccc(Cn3ccnc3)cc2)c1 |  |  | 80
c1ccc(-c2nnn[nH]2)c(-c2ccc(Cn3cncn3)cc2)c1 |  |  | 80
OCCOCCN1CCN(Cc2ccc(-c3ccccc3-c3nnn[nH]3)cc2)CC1 | inactive |  | 
Cc1nnc(-c2ccccc2-c2ccc(CN3CCC(C(=O)O)CC3)cc2)o1 | inactive | inactive | 
O=C1CSC(=O)N1Cc1ccc(-c2ccccc2-c2nnn[nH]2)cc1 | inactive |  | 
Cc1nnc(-c2ccccc2-c2ccc(CN3CCNCC3)cc2)o1 | inactive | inactive | 
Cc1nnc(-c2ccccc2-c2ccc(CN3C(=O)CSC3=O)cc2)o1 | inactive | inactive | 
Cc1nnc(-c2ccccc2-c2ccc(CN3CCOCC3)cc2)o1 | inactive | inactive | 
Cc1nnc(-c2ccccc2-c2ccc(Cn3ccnc3)cc2)o1 | inactive | inactive | 
CN1CCN(Cc2ccc(-c3ccccc3-c3nnn[nH]3)cc2)CC1 |  |  | 92
O=C(O)C1CCN(Cc2ccc(-c3ccccc3-c3nnn[nH]3)cc2)CC1 | inactive | inactive | 
Cc1nnc(-c2ccccc2-c2ccc(CN3CCN(CCOCCO)CC3)cc2)o1 | inactive | inactive | 
c1ccc(-c2nnn[nH]2)c(-c2ccc(CN3CCNCC3)cc2)c1 |  |  | 83
Cc1nnc(-c2ccccc2-c2ccc(Cn3cncn3)cc2)o1 | inactive | inactive | 
